Laboratory results published in BigSolDB 2.1.

C[C@@H]1O[C@@H]1P(=O)([O-])[O-].[Na+].[Na+]
solubility (mole fraction)
Settings	283.15 K	288.15 K	293.15 K	298.15 K	303.15 K	308.15 K	313.15 K	318.15 K	323.15 K
in DMF	0.000606	0.000532	0.000481	0.000443	0.000396	0.000358	0.000339	0.000312	0.000291
in acetone	0.000186	0.00016	0.000138	0.000115	9.72e-05	8.3e-05	7.09e-05	6.07e-05	5.47e-05
in cyclohexane	0.000403	0.000353	0.0003	0.000252	0.000226	0.000196	0.000175	0.000151	0.000128
in ethanol	0.00109	0.000934	0.000769	0.000643	0.000548	0.000463	0.000383	0.000316	0.000266
in methanol	0.0177	0.0165	0.0152	0.0138	0.0129	0.0121	0.0111	0.0105	0.00984
in n-propanol	0.000108	8.01e-05	6.19e-05	4.52e-05	3.09e-05	1.95e-05	1.34e-05	1.04e-05	7.1e-06
